{"source": "patent EP0066406A1", "about": "“Beta-lactam antibiotics” (BEECHAM GROUP PLC, priority 1981, dated 1982)", "test_in_all_cases": "MIC determination (agar/broth)", "format_in_all_cases": "cell-based", "key": {"B. subtilis": {"test_system": "B. subtilis", "settings": "Bacillus subtilis, AGAR"}, "P. mirabilis 889": {"test_system": "P. mirabilis 889", "settings": "Proteus mirabilis, AGAR"}, "N. catarrhalis 1502": {"test_system": "N. catarrhalis 1502", "settings": "AGAR"}, "E. coli JT 4": {"test_system": "E. coli JT 4", "settings": "Escherichia coli, JT4, AGAR"}, "S. faecalis I": {"test_system": "S. faecalis I", "settings": "Enterococcus faecalis, AGAR"}, "S. pyogenes CN 10": {"test_system": "S. pyogenes CN 10", "settings": "Streptococcus pyogenes, CN10, AGAR"}, "E. cloacae N1": {"test_system": "E. cloacae N1", "settings": "Enterobacter cloacae, AGAR"}, "S. aureus Russell": {"test_system": "S. aureus Russell"}, "E. coli JT 425": {"test_system": "E. coli JT 425", "settings": "Escherichia coli, JT425, AGAR"}, "E. coli NCTC 10418": {"test_system": "E. coli NCTC 10418"}, "P. rettgeri": {"test_system": "P. rettgeri", "settings": "Providencia rettgeri, AGAR"}, "Ps. aeruginosa Dalgleish": {"test_system": "Ps. aeruginosa Dalgleish", "settings": "Pseudomonas aeruginosa; AGAR; Ps. aeruginosa Dalgleish 10^-2"}, "K. aerogenes A": {"test_system": "K. aerogenes A", "settings": "Klebsiella aerogenes"}, "P. mirabilis C 977": {"test_system": "P. mirabilis C 977", "settings": "Proteus mirabilis, C977, AGAR"}, "P. morganii": {"test_system": "P. morganii", "settings": "Morganella morganii, AGAR"}, "[1]": {"test_system": "Ps. aeruginosa NCTC 10662", "settings": "Pseudomonas aeruginosa"}, "E. coli ESS": {"test_system": "E. coli ESS", "settings": "Escherichia coli, AGAR"}, "S. aureus Oxford": {"test_system": "S. aureus Oxford"}, "S. marcescens US 32": {"test_system": "S. marcescens US 32", "settings": "Serratia marcescens, US32, AGAR"}, "[2]": {"settings": "Staphylococcus aureus, AGAR, read-out: MIC"}}, "note": "Like-named read-outs stand apart in the source and are kept apart here."}
{"compound": "CCN1CCN(C(=O)NC(C(=O)N[C@@H]2C(=O)N3[C@@H]2SC(C)(C)[C@@H]3C(=O)O)c2csc(N)n2)C(=O)C1=O", "note": "(mixture of isomers) [Example 1, 6-[DL-a-(4-Ethyl-2,3-dioxopiperazin-l-carbonylamino)-2-aminothiazol-4-acetamido]penicillanic acid]", "values": [{"measurement": "MIC", "setting": "B. subtilis", "result": 2.5, "unit": "µg/mL"}, {"measurement": "MIC", "setting": "P. mirabilis 889", "result": "> 100", "unit": "µg/mL"}, {"measurement": "MIC", "setting": "N. catarrhalis 1502", "result": "< 0.02", "unit": "µg/mL"}, {"measurement": "MIC", "setting": "E. coli JT 4", "result": "> 100", "unit": "µg/mL"}, {"measurement": "MIC", "setting": "S. faecalis I", "result": 25, "unit": "µg/mL"}, {"measurement": "MIC", "setting": "S. pyogenes CN 10", "result": 0.1, "unit": "µg/mL"}, {"measurement": "MIC", "setting": "E. cloacae N1", "result": 0.5, "unit": "µg/mL"}, {"measurement": "MIC", "setting": "S. aureus Russell; BROTH", "result": 100, "unit": "µg/mL"}, {"measurement": "MIC", "setting": "S. aureus Russell; [2]", "result": 100, "unit": "µg/mL"}, {"measurement": "MIC", "setting": "E. coli JT 425", "result": 25, "unit": "µg/mL"}, {"measurement": "MIC", "setting": "E. coli NCTC 10418; BROTH", "result": 1.0, "unit": "µg/mL"}, {"measurement": "MIC", "setting": "E. coli NCTC 10418; Escherichia coli, NCTC10418, AGAR, read-out: MIC", "result": 1, "unit": "µg/mL"}, {"measurement": "MIC", "setting": "P. rettgeri", "result": 2.5, "unit": "µg/mL"}, {"measurement": "MIC", "setting": "Ps. aeruginosa Dalgleish", "result": "> 100", "unit": "µg/mL"}, {"measurement": "MIC", "setting": "K. aerogenes A; AGAR", "result": 10, "unit": "µg/mL"}, {"measurement": "MIC", "setting": "K. aerogenes A; BROTH", "result": 25, "unit": "µg/mL"}, {"measurement": "MIC", "setting": "P. mirabilis C 977", "result": 0.2, "unit": "µg/mL"}, {"measurement": "MIC", "setting": "P. morganii", "result": 0.5, "unit": "µg/mL"}, {"measurement": "MIC", "setting": "[1]; NCTC10662, AGAR, Ps. aeruginosa NCTC 10662", "result": 5, "unit": "µg/mL"}, {"measurement": "MIC", "setting": "[1]; NCTC10662, AGAR, Ps. aeruginosa NCTC 10662 10^-2", "result": 2.5, "unit": "µg/mL"}, {"measurement": "MIC", "setting": "[1]; NCTC10662, BROTH, Ps. aeruginosa NCTC 10662", "result": 10, "unit": "µg/mL"}, {"measurement": "MIC", "setting": "[1]; NCTC10662, BROTH, Ps. aeruginosa NCTC 10662 10^-2", "result": 25, "unit": "µg/mL"}, {"measurement": "MIC", "setting": "E. coli ESS", "result": "< 0.02", "unit": "µg/mL"}, {"measurement": "MIC", "setting": "S. aureus Oxford; BROTH", "result": 1.0, "unit": "µg/mL"}, {"measurement": "MIC", "setting": "S. aureus Oxford; [2]", "result": 1, "unit": "µg/mL"}, {"measurement": "MIC", "setting": "S. marcescens US 32", "result": 2.5, "unit": "µg/mL"}]}
